Tests used:
[1] = molecular target: T1, Alpha-1B adrenergic receptor (Homo sapiens) (UniProt P35368); conditions: CHO, 100 nM
T1 sequence (whole entry): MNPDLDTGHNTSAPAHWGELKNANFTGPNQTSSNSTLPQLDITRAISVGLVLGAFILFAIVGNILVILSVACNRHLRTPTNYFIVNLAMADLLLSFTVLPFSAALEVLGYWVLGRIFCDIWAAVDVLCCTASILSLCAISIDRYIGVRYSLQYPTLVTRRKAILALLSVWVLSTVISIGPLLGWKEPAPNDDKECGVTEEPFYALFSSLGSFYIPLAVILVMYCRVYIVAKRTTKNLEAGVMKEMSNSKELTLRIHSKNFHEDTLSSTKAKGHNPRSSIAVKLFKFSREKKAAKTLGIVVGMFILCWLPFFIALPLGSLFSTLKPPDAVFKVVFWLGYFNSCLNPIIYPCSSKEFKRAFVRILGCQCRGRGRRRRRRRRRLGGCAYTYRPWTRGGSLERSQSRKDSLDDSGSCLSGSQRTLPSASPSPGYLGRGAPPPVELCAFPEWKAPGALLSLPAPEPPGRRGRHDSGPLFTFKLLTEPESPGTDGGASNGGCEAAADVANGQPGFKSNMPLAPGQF

[2] = molecular target: T2, Alpha-1D adrenergic receptor (Homo sapiens) (UniProt P25100); conditions: CHO, 10000 nM
T2 sequence (whole entry): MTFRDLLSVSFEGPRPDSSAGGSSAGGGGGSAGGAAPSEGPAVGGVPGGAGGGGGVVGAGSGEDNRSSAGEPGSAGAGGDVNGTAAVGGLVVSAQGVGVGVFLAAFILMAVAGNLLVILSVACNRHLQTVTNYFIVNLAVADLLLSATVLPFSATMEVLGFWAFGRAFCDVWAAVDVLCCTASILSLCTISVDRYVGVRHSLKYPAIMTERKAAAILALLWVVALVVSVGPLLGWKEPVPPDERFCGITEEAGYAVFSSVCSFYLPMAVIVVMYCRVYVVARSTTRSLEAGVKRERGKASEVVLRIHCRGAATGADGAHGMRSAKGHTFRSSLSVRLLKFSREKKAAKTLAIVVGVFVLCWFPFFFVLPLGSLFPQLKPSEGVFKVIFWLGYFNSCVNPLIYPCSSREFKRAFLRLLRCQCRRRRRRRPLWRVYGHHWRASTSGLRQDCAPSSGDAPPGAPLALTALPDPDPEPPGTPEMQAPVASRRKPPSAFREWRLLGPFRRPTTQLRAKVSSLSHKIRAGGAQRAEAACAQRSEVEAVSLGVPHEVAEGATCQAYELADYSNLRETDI

[3] = human, microsomes, 1 µM
[4] = molecular target: T3, Alpha-1A adrenergic receptor (Homo sapiens) (UniProt P35348); conditions: CHO, 100 nM
T3 sequence (whole entry): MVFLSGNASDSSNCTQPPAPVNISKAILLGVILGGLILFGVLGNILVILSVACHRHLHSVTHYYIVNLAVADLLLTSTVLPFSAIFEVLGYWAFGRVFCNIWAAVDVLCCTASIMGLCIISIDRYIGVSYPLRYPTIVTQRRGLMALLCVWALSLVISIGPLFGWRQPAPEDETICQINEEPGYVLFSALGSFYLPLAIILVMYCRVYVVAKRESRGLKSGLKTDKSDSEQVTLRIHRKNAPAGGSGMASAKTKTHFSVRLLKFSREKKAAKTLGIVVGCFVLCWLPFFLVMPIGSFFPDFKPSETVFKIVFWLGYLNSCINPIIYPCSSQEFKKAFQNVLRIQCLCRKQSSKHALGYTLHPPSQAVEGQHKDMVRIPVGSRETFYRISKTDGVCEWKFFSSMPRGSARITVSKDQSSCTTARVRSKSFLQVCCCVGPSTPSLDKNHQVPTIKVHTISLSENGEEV

[5] = molecular target: T4, Alpha-2A adrenergic receptor (Homo sapiens) (UniProt P08913); conditions: CHO, 100 nM
T4 sequence (whole entry): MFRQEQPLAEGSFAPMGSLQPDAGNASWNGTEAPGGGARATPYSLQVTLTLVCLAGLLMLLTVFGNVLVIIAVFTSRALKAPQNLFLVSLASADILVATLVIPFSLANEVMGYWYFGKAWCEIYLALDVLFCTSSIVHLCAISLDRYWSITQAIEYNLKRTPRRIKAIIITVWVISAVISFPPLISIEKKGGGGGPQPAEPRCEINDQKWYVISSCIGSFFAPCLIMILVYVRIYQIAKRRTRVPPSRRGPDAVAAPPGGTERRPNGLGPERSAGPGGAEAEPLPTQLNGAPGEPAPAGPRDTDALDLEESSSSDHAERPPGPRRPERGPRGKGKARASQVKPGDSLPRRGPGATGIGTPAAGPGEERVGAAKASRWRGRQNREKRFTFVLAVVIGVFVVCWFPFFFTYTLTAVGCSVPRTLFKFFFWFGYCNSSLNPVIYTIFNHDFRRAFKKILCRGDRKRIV

[6] = molecular target: T4, Alpha-2A adrenergic receptor (Homo sapiens); conditions: CHO, 10000 nM
[7] = Toxicity in Sprague-Dawley rat assessed as induction of hypothermia at 0.0032 to 10 mg/kg, iv; format: organism-based; conditions: in vivo
[8] = molecular target: Nociceptin receptor (Homo sapiens) (UniProt P41146); conditions: 10000 nM
[9] = molecular target: T5, Alpha-2B adrenergic receptor (Homo sapiens, UniProt P18089); assay: biochemical; format: cell-based, CHO
T5 sequence (P18089 whole entry): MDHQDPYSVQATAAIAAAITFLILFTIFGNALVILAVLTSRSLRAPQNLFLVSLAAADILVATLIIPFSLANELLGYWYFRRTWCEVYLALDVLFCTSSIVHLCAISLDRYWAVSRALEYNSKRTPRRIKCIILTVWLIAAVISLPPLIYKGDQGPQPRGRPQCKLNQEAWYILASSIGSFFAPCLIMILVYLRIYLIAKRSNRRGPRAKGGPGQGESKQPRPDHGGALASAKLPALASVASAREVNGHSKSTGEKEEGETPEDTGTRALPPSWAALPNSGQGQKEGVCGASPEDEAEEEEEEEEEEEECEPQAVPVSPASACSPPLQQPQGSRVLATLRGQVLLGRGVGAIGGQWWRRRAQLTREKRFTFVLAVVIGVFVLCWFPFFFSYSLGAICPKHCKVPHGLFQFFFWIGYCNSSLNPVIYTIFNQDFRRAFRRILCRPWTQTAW

[10] = molecular target: T6, Alpha-2A adrenergic receptor (Homo sapiens, UniProt P08913); assay: biochemical
T6 sequence (P08913 whole entry): T4 sequence (whole entry)

[11] = molecular target: T7, Alpha-1A adrenergic receptor (Homo sapiens, UniProt P35348); assay: Displacement of [3H]prazosin from human recombinant adrenergic alpha-1A receptor expressed in CHO cell membranes incubated for 60 mins
T7 sequence (P35348 whole entry): T3 sequence (whole entry)

[12] = molecular target: Nociceptin receptor (Homo sapiens) (UniProt P41146); conditions: 100 nM

Nociceptin receptor (Homo sapiens), sequence (P41146 whole entry): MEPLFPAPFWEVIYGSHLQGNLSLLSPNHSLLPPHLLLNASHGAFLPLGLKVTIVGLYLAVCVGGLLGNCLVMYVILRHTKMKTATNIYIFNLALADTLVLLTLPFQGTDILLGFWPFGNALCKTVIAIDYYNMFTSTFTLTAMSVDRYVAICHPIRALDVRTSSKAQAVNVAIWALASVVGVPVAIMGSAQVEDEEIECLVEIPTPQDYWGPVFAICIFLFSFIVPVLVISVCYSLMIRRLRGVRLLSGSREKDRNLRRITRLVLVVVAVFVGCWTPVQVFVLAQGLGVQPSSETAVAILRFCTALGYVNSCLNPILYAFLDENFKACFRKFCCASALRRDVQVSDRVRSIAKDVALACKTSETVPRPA

Compound: CC[C@@H]1CN2CCc3c([nH]c4cccc(OC)c34)[C@H]2C[C@@H]1/C(=C\OC)C(=O)OC
- inhibition [1]: 25.2%
- inhibition [2]: 70.5%
- Fu [3]: 0.276
- inhibition [4]: 16.8%
- inhibition [5]: 7%
- inhibition [6]: 73.1%
- Activity [7]: Toxic
- inhibition [8]: 31.8%

Compound: CC[C@@H]1CN2CCc3c([nH]c4cccc(OC)c34)[C@@H]2C[C@@H]1/C(=C\OC)C(=O)OC
- Ki [9]: 9.29 µM
- Ki [10]: 4.72 µM
- inhibition [2]: 57.9%
- Fu [3]: 0.307
- inhibition [4]: 13.2%
- inhibition [5]: -8%
- inhibition [6]: 40.4%
- Activity [7]: Non-Toxic
- inhibition [8]: 40.8%
- Ki [11]: 1.34 µM
- inhibition [12]: 4.3%

Source: ChEMBL document CHEMBL4376854, “Investigation of the Adrenergic and Opioid Binding Affinities, Metabolic Stability, Plasma Protein Binding Properties, and Functional Effects of Selected Indole-Based Kratom Alkaloids” (J Med Chem, 2020)
